Measured values taken from patent US20040219202A1, “Pharmaceutical composition comprising lipids comprising a polar and a nonpolar moiety” (priority 2001, published 2004).
pKd: −log10 of the molar value.

How the values were obtained:
[1] = Net charge of cationic lipid; format: physicochemical; conditions: pH 7.4
Text: The monoacetylenic analogues of DOPC, DOPE, DODAP and DOTAP were synthesised as described above. Standard lipids for comparisons (DOPC, DOPE and DOTAP (chloride salt)) were purchased from Sigma-Aldrich, Poole, Dorset, UK. Our invention the cationic, cholesterol-based lipid N^1-cholesteryloxycarbonyl-3,7-diazanononane-1,9-diamine (CDAN)—net charge=+1.6 at pH 7.4.CDAN (below) was synthesised by our group previously,^22 and is now available in a 1:1 molar ratio formulation with DOPE as Trojene™ (Avanti Polar Lipids, Inc., Alabaster, Ala., USA). [drawing 40]

C. tomentosicollis eggs = conditions: cited from earlier work
DNA = conditions: read-out: apparent DNA dissociation constant; cited from earlier work
DNA topoisomerase I = molecular target: T1, DNA topoisomerase I (Homo sapiens, UniProt P11387); conditions: cited from earlier work
T1 sequence (P11387 1-765): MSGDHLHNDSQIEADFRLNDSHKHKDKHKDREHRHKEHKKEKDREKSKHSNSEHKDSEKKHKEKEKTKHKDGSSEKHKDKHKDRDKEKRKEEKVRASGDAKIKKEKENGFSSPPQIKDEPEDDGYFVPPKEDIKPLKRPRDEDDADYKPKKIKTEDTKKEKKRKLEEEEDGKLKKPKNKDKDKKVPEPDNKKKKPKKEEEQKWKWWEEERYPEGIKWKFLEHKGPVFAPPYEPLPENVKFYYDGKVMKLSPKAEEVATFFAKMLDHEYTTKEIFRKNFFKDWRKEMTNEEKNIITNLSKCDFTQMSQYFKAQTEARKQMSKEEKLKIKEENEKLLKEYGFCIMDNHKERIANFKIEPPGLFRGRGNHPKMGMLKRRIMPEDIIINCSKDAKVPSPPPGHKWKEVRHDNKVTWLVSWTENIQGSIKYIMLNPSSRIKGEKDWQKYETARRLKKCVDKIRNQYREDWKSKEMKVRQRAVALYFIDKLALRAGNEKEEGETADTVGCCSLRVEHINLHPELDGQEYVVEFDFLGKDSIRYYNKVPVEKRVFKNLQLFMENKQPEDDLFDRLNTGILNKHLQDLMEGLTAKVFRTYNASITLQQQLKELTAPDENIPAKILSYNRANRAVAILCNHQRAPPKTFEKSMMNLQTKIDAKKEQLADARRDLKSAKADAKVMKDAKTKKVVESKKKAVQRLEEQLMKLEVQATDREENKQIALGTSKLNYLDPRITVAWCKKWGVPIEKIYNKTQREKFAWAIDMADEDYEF

DNA polymerase α = molecular target: T2, DNA polymerase α (Homo sapiens, UniProt P09884); conditions: cited from earlier work
T2 sequence (P09884 1-1462): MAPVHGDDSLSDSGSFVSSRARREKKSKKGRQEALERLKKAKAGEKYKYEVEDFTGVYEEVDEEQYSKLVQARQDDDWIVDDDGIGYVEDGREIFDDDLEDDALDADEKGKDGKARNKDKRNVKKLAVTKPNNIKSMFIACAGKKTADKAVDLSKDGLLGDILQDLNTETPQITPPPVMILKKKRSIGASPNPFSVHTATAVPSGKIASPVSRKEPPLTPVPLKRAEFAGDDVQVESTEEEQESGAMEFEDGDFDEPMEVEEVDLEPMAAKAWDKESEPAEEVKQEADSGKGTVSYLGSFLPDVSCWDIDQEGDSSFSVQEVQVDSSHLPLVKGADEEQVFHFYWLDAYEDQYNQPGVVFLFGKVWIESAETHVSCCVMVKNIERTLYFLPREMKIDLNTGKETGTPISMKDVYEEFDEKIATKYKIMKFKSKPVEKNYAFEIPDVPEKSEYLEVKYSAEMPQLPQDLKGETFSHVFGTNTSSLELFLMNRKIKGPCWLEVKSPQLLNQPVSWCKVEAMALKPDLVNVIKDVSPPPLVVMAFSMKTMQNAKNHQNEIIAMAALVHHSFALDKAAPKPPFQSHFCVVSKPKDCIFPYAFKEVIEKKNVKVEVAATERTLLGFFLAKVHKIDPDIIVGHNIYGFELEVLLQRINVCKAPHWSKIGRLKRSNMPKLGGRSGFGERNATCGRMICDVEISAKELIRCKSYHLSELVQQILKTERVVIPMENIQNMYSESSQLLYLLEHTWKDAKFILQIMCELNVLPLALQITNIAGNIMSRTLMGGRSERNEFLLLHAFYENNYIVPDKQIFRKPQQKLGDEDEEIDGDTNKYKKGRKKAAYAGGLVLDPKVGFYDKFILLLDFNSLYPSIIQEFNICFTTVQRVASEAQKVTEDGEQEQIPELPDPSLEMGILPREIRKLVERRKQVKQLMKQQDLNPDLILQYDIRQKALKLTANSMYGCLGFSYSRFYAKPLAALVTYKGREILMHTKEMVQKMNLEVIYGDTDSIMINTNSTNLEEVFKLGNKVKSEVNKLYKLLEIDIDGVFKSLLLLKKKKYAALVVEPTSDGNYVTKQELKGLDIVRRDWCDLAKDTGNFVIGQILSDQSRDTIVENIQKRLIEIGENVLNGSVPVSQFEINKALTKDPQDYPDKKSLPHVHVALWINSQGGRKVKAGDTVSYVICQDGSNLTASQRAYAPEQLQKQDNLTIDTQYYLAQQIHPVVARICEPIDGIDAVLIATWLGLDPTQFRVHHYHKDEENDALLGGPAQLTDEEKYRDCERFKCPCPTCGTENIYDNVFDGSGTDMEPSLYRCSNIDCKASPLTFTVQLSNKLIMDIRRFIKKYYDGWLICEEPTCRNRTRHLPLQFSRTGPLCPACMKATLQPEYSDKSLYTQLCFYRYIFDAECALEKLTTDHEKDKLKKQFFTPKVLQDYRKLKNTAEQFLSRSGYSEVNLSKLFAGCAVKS

[2] = molecular target: T3, Cytochrome P4504A4 (CYP4A4) (Oryctolagus cuniculus, UniProt P10611); conditions: cited from earlier work
T3 sequence (P10611 5-510): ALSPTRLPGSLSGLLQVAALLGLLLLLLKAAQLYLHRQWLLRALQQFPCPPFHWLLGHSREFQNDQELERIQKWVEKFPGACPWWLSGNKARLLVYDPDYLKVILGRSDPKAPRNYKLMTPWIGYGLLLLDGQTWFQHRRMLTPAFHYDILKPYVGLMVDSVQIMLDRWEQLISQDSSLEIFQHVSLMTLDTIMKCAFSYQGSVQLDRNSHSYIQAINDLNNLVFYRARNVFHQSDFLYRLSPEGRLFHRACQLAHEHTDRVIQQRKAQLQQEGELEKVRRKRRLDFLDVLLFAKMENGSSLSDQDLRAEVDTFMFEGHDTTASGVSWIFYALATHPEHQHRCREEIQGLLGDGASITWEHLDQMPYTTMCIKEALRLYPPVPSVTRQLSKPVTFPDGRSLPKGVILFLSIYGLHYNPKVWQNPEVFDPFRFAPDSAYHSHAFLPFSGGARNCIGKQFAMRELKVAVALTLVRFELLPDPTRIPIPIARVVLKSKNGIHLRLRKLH

cytochrome P4504A1 = molecular target: T4, cytochrome P4504A1 (Rattus norvegicus, UniProt P08516); conditions: cited from earlier work
T4 sequence (P08516 1-509): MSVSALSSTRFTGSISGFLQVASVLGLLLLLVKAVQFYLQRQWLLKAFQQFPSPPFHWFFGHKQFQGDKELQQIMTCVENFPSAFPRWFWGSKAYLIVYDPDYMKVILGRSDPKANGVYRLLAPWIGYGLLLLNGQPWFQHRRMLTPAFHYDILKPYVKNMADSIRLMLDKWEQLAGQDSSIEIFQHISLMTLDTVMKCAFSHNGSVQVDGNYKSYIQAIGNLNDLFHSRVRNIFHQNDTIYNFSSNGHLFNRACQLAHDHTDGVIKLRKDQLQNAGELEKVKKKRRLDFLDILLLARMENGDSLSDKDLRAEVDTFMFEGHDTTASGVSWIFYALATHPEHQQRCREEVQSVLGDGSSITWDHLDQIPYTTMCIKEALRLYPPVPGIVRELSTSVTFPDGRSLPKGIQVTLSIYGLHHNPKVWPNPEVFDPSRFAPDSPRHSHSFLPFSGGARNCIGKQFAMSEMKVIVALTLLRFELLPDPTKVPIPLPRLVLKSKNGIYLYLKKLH

[3] = system: ethanolamine-specific phospholipid base exchange reaction; conditions: rat liver microsomes; cited from earlier work
[4] = system: hepatic glutathione S-transferases; conditions: cited from earlier work
cyclo-oxygenase = conditions: cited from earlier work
5-lipoxygenase = molecular target: T5, 5-lipoxygenase (Homo sapiens, UniProt P09917); conditions: cited from earlier work
T5 sequence (P09917 1-674): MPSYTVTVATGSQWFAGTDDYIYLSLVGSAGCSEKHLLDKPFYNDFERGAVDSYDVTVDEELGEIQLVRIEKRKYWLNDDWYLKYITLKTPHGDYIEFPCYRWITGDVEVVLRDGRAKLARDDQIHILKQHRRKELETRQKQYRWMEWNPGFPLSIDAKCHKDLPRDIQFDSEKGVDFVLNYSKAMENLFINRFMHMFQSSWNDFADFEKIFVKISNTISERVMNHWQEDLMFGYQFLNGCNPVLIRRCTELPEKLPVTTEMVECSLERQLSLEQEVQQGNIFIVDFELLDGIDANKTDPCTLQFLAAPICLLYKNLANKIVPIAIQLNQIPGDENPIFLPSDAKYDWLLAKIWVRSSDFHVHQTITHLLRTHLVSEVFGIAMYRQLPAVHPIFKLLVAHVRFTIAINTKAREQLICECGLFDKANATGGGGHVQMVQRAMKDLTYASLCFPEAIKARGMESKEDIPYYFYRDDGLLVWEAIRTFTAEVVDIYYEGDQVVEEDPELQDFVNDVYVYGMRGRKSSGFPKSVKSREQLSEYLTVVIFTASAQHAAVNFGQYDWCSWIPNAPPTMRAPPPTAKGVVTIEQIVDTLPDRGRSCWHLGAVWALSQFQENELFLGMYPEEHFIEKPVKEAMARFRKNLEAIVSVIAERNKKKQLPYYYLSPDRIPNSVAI

Fe(III)-LOX = conditions: cited from earlier work

In the case of `CC(C)CCC[C@@H](C)[C@H]1CC[C@H]2[C@@H]3CC=C4C[C@@H](OC(=O)NCCNCCCNCCN)CC[C@]4(C)[C@H]3CC[C@]12C` [CDAN, N^1-cholesteryloxycarbonyl-3,7-diazanononane-1,9-diamine], the net charge [1] was “+1.6”.
For `CCCCCCCCCCCCC#CCCCC(=O)O` [Octadeca-5-ynoic acid], the “Hatching of C. tomentosicollis eggs” value (C. tomentosicollis eggs) is listed as “inhibits the hatching”.
In the case of `CCCCCCCCC#CCCCCCCCC(=O)O` [Octadeca-9-ynoic acid, octadeca-9-ynoic acid], the pKd (DNA) is listed as 2.74, the “DNA topoisomerase I-mediated relaxation of a supercoiled plasmid DNA” value (DNA topoisomerase I) is listed as “does not inhibit” and the “topisomerase I-mediated DNA filter binding” value (DNA topoisomerase I) is listed as “inhibits”. The “Inhibition of DNA polymerase α” value (DNA polymerase α) was “weakly inhibitory”.
For `C#CCCCCCCCCCCCCCCCC(=O)O` [Octadeca-17-ynoic acid], the “Inhibition of the substrate-binding pocket of CYP4A4” value [2] is listed as “effective inhibitor”.
In the case of `C#CCCCCCCCCC(=O)O` [Undeca-10-ynoic acid], the “Inhibition of cytochrome P4504A1” value (cytochrome P4504A1) is listed as “inhibitor” and the “Ethanolamine-specific phospholipid base exchange reaction” value [3] is listed as “inhibits”.
In the case of `CCCCCCCCC#CCC#CCC#CCCCC(=O)O` [eicosa-5,8,11-triynoic acid], the “Inhibition of mammalian hepatic glutathione S-transferases” value [4] is given as “inhibits”.
In the case of `CCCCCC#CC#CC#CCCCCCCC(=O)O` [octadeca-8,10,12-triynoic acid], the Inhibition of cyclo-oxygenase (cyclo-oxygenase) is given as “potent inhibitors” and the “Inhibition of 5-lipoxygenase” value (5-lipoxygenase) is given as “weak inhibitors”.
In the case of `CCCCCC#CCC#CCCCCCCCC(=O)O` [octadeca-9,12-diynoic acid], the “Inactivation of Fe(III)-LOX” value (Fe(III)-LOX) is listed as “irreversibly inactivates”.
